In patent US10966978B2, “Dose and regimen for HDM2-p53 interaction inhibitors” (Novartis AG, priority 2016, dated 2021):
Read-outs that look alike come from different tables or passages of the source.

System: patients with advanced TP53 wild-type (WT) leukemias
[1] = All subjects N = 37, All Grades

Excerpt: Patients with Ph+ ALL who show early markers of relapse in MRD surveillance can be considered for inclusion as long as other therapies such as TKIs are exhausted or cannot be given. • Tumor of the patient is TP53 wt characterized by, at a minimum, no mutations in exons 5, 6, 7 and 8, and the p53 status was obtained from a bone-marrow sample, collected no longer than 3 months before signing the main ICF. Safety and Tolerability Profile of Regimen 1B in Hematological Tumors

COc1ncc(-c2nc3c(n2C(C)C)[C@H](c2ccc(Cl)cc2)N(c2cc(Cl)cn(C)c2=O)C3=O)c(OC)n1 [HDM201, (S)-5-(5-Chloro-1-methyl-2-oxo-1,2-dihydro-pyridin-3-yl)-6-(4-chloro-phenyl)-2-(2,4-dimethoxy-pyrimidin-5-yl)-1-isopropyl-5,6-dihydro-1H-pyrrolo[3,4-d]imidazol-4-one]
Cycle 1 DLTs (1A 350 mg (4 evaluable patients)): 0
Cycle 1 DLTs (1A 400 mg (9 evaluable patients)): 4
Cycle 1 DLTs (1A (d1 Q3W) 250 mg (3 evaluable patients)): 0
Cycle 1 DLTs, Total (1A all doses, N = 16): 4:
Cycle 1 DLTs (1B (d1, d8 Q4W) 150 mg (6 evaluable patients)): 1
Cycle 1 DLT events observed (1B, N = 6): Acute Kidney Injury G4
Cycle 1 DLTs (2A 30 mg (3 evaluable patients)): 0
Cycle 1 DLTs (2A (2 weeks on/2 weeks off) 20 mg (3 evaluable patients)): 0
Cycle 1 DLTs, Total (2A all doses, N = 6): 0
Cycle 1 DLTs (2C (1 week on/3 weeks off) 45 mg (8 evaluable patients)): 1
Cycle 1 DLT events observed (2C, N = 8): Tumor Lysis Syndrome G4
Cycle 1 DLTs, Total (2C, N = 8): 1
AE: Abdominal Discomfort [1]: 1 (2.7) n (%)
AE: Abdominal Pain [1]: 2 (5.4) n (%)
AE: Abdominal Pain Upper [1]: 1 (2.7) n (%)
AE: Acute Kidney Injury [1]: 3 (8.1) n (%)
AE: Amylase Increased [1]: 3 (8.1) n (%)
AE: Anaemia [1]: 16 (43.2) n (%)
AE: Arthralgia [1]: 1 (2.7) n (%)
AE: Asthenia [1]: 5 (13.5) n (%)
AE: Atrial Fibrillation [1]: 2 (5.4) n (%)
AE: Atypical Pneumonia [1]: 1 (2.7) n (%)
AE: Balanitis Candida [1]: 1 (2.7) n (%)
AE: Blood Alkaline Phosphatase Increased [1]: 1 (2.7) n (%)
AE: Blood Bilirubin Increased [1]: 2 (5.4) n (%)
AE: Blood Creatinine Increased [1]: 3 (8.1) n (%)
AE: Blood Phosphorus Increased [1]: 3 (8.1) n (%)
AE: Blood Uric Acid Increased [1]: 1 (2.7) n (%)
AE: Bone Marrow Failure [1]: 1 (2.7) n (%)
AE: C-Reactive Protein Increased [1]: 2 (5.4) n (%)
AE: Cardiac Failure [1]: 1 (2.7) n (%)
AE: Cellulitis [1]: 1 (2.7) n (%)
AE: Chronic Graft Versus Host Disease [1]: 1 (2.7) n (%)
AE: Conjunctival Haemorrhage [1]: 1 (2.7) n (%)
AE: Constipation [1]: 2 (5.4) n (%)
AE: Cough [1]: 1 (2.7) n (%)
AE: Cystitis Viral [1]: 1 (2.7) n (%)
AE: Cytomegalovirus Infection [1]: 1 (2.7) n (%)
AE: Decreased Appetite [1]: 10 (27.0) n (%)
AE: Diarrhoea [1]: 6 (16.2) n (%)
AE: Dyspepsia [1]: 2 (5.4) n (%)
AE: Dyspnoea [1]: 1 (2.7) n (%)
AE: Epistaxis [1]: 1 (2.7) n (%)
AE: Fatigue [1]: 6 (16.2) n (%)
AE: Febrile Neutropenia [1]: 11 (29.7) n (%)
AE: Gamma-Glutamyltransferase Increased [1]: 2 (5.4) n (%)
AE: General Physical Health Deterioration [1]: 2 (5.4) n (%)
AE: Gingival Bleeding [1]: 2 (5.4) n (%)
AE: Graft Versus Host Disease [1]: 1 (2.7) n (%)
AE: Haemoglobin Decreased [1]: 1 (2.7) n (%)
AE: Headache [1]: 2 (5.4) n (%)
AE: Hyperbilirubinaemia [1]: 3 (8.1) n (%)
AE: Hyperglycaemia [1]: 1 (2.7) n (%)
AE: Hyperkalaemia [1]: 1 (2.7) n (%)
AE: Hyperphosphataemia [1]: 3 (8.1) n (%)
AE: Hyperuricaemia [1]: 2 (5.4) n (%)
AE: Hypoalbuminaemia [1]: 1 (2.7) n (%)
AE: Hypocalcaemia [1]: 2 (5.4) n (%)
AE: Hypokalaemia [1]: 1 (2.7) n (%)
AE: Hypomagnesaemia [1]: 1 (2.7) n (%)
AE: Hyponatraemia [1]: 2 (5.4) n (%)
AE: Hypophosphataemia [1]: 2 (5.4) n (%)
AE: Hypotension [1]: 1 (2.7) n (%)
AE: Infection [1]: 1 (2.7) n (%)
AE: Infective Glossitis [1]: 1 (2.7) n (%)
AE: Iron Overload [1]: 1 (2.7) n (%)
AE: Leukopenia [1]: 2 (5.4) n (%)
AE: Lip Oedema [1]: 1 (2.7) n (%)
AE: Lipase Increased [1]: 3 (8.1) n (%)
AE: Macular Oedema [1]: 1 (2.7) n (%)
AE: Malaise [1]: 2 (5.4) n (%)
AE: Mouth Haemorrhage [1]: 2 (5.4) n (%)
AE: Nausea [1]: 20 (54.1) n (%)
AE: Neutropenia/Neutrophil Count Decreased [1]: 12 (32.4) n (%)
AE: Oedema [1]: 1 (2.7) n (%)
AE: Oedema Peripheral [1]: 1 (2.7) n (%)
AE: Oral Disorder [1]: 1 (2.7) n (%)
AE: Pain In Extremity [1]: 1 (2.7) n (%)
AE: Pancytopenia [1]: 2 (5.4) n (%)
AE: Pneumonia [1]: 1 (2.7) n (%)
AE: Pollakiuria [1]: 1 (2.7) n (%)
AE: Pyrexia [1]: 4 (10.8) n (%)
AE: Rash [1]: 1 (2.7) n (%)
AE: Rash Erythematous [1]: 1 (2.7) n (%)
AE: Rash Papular [1]: 1 (2.7) n (%)
AE: Rectal Haemorrhage [1]: 1 (2.7) n (%)
AE: Renal Failure [1]: 1 (2.7) n (%)
AE: Skin Exfoliation [1]: 1 (2.7) n (%)
AE: Stomatitis [1]: 2 (5.4) n (%)
AE: Subarachnoid Haemorrhage [1]: 1 (2.7) n (%)
AE: Thrombocytopenia/Platelet Count Decreased [1]: 18 (48.6) n (%)
AE: Total [1]: 33 (89.2) n (%)
AE: Tumour Lysis Syndrome [1]: 9 (24.3) n (%)
AE: Vomiting [1]: 7 (18.9) n (%)
AE: Weight Decreased [1]: 1 (2.7) n (%)
AE: White Blood Cell Count Decreased [1]: 4 (10.8) n (%)
AE: Abdominal Discomfort (All subjects N = 37, Grade 3/4): 0 n (%)
AE: Abdominal Pain (All subjects N = 37, Grade 3/4): 0 n (%)
AE: Abdominal Pain Upper (All subjects N = 37, Grade 3/4): 0 n (%)
AE: Acute Kidney Injury (All subjects N = 37, Grade 3/4): 1 (2.7) n (%)
AE: Amylase Increased (All subjects N = 37, Grade 3/4): 0 n (%)
AE: Anaemia (All subjects N = 37, Grade 3/4): 11 (29.7) n (%)
AE: Arthralgia (All subjects N = 37, Grade 3/4): 0 n (%)
AE: Asthenia (All subjects N = 37, Grade 3/4): 0 n (%)
AE: Atrial Fibrillation (All subjects N = 37, Grade 3/4): 0 n (%)
